Laboratory results from US20070014803A1, “METHODS AND COMPOSITIONS FOR DIAGNOSIS AND TREATMENT OF VIRAL AND BACTERIAL INFECTIONS” (Arbor Vita Corporation, priority 2005, published 2007).
Where two headings read alike, the source gives them in different places. Where no end group is shown, it is not given here.

Tests used:
[1] = molecular target: T1, PDZ protein NSP (Homo sapiens, UniProt Q92743); experiment: PRISM Matrix ELISA modified G assay (pre-incubation), peptide titration; settings: read-out: EC50 of binding to the PDZ protein NSP
T1 construct: made in house
T1 sequence (Q92743 359-473): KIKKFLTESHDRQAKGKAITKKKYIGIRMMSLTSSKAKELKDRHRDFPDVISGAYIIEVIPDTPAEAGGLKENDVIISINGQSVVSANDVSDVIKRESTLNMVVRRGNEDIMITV
Procedure: (§1) Two different types of ELISA assays were used to test the HIV Peptides 1904 and 1905. The primary MATRIX screen against all PDZ proteins in the library was performed under pre-incubation conditions, which are a modification of the G assay. A pre-incubation assay incubates the peptide with the HRP-streptavidin before addition of the mixture to the PDZ-coated plate. The subsequent titrations of the peptide against the PDZs of interest were performed under normal ELISA G assay conditions. In normal conditions the peptide is incubated on the PDZ coated plate before the later addition of the HRP-streptavidin. The reagents and supplies for both assays are listed below, as well as the two different protocols.
(§2) The PRISM Matrix ELISA modified G Assay was also used for pre-incubation and for the MATRIX assay. The protocol was as follows.
(§3) 1. Coat plate with 100 μl of 5 μg/ml anti-GST, O/N @ 4° C.
(§4) 2. Dump contents out of plate and tap dry on paper towels
(§5) 3. Block with 200 μl Assay Buffer for 1 to 2 hrs at room temperature
(§6) 4. Prepare proteins in Assay Buffer
(§7) 5. Wash plate 3× with cold PBS*
(§8) 6. Add proteins at 50 μl per well, incubate 1 to 2 hrs at 4° C.
(§9) 7. Prepare peptides in Assay Buffer:
(§10) • Prepare peptides in half of volume need with double of desired concentration. • Dilute HRP (1:1000) in another half of volume (same volume with peptide) then mix with peptides. • Incubate the peptide-HRP mixtures for 20 minutes at RT 8. Wash plate 3× with cold PBS* 9. Add peptide-HRP mixtures at 50 μl per well (write time on plate) 10. Incubate at RT after last peptide has been added for exactly 30 minutes 11. Turn on plate reader and prepare files 12. Promptly wash plate 5× with room temperature PBS 13. Add 100 μl/well TMB substrate (write time on plate) 14. Incubate in dark at room temp for a maximum of 30 minutes 15. Stop reaction with 100 μl of 0.18M H2SO4, 30 min. after adding TMB 16. Take last reading at 450 nm soon after stopping reaction

[2] = molecular target: T2, PDZ protein Rim2 (Homo sapiens, UniProt Q9UQ26); experiment: as above; settings: read-out: EC50 of binding to the PDZ protein Rim2
T2 construct: made in house
T2 sequence (Q9UQ26 632-757): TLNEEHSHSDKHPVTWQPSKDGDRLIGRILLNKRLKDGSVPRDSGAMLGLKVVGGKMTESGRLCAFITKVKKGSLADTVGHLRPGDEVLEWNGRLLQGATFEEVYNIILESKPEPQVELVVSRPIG
Procedure: as §1, §2, §3, §4, §5, §6, §7, §8, §9, §10

[3] = molecular target: T3, PDZ protein ZO-1 d2 (domain 2) (Homo sapiens, UniProt Q07157, DEL264-264); experiment: as above; settings: read-out: EC50 of binding to the PDZ protein ZO-1 d2
T3 construct: made in house
T3 sequence (Q07157 with tags, fused parts or gaps DEL264-264): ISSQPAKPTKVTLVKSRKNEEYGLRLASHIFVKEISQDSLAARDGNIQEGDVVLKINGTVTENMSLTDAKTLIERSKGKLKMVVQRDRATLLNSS
Procedure: as §1, §2, §3, §4, §5, §6, §7, §8, §9, §10

[4] = molecular target: T4, EBP50 (Homo sapiens, UniProt O14745); experiment: MATRIX screen against PDZ library (modified G assay); assay type: binding; settings: pre-incubation conditions
T4 construct: made in house
T4 sequence (O14745 whole entry): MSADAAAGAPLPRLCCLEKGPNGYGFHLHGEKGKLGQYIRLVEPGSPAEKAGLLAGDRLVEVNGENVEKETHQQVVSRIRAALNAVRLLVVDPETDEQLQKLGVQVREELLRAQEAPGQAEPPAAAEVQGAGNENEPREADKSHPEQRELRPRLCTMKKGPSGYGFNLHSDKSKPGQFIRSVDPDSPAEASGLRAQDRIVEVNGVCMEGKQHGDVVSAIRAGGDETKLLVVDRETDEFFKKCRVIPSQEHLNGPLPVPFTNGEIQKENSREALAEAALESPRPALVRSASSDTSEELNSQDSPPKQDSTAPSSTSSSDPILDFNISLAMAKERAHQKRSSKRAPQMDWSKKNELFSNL
Procedure: (§11) Matrix graphPeptides and proteins were tested in an array format constituting a near complete set (255) of all the different PDZ domains in the human genome. Each PDZ domain polypeptide was expressed as a recombinant GST-PDZ polypeptide in a commercial glutathione S-transferase tagged expression system. Specific binding of biotinylated-PL peptides to PDZ domain polypeptides was detected using streptavidin-HRP and TMB substrate. Similarly, specific binding of PL protein-MBP fusion proteins to PDZ domain polypeptides was visualized using biotinylated anti-MBP, streptavidin-HRP and TMB substrate. The relative strength of binding was analyzed and the strong and weak binders are shown for each PL. A PDZ protein that binds more strongly is preferable when used for capturing or identifying PL proteins.
as §1, §2, §3, §4, §5, §6, §7, §8, §9, §10

[5] = molecular target: T5, EBP50 d1 (Homo sapiens, UniProt O14745); experiment: as above; assay type: binding; settings: pre-incubation conditions
T5 construct: made in house
T5 sequence (O14745 with tags, fused parts or gaps): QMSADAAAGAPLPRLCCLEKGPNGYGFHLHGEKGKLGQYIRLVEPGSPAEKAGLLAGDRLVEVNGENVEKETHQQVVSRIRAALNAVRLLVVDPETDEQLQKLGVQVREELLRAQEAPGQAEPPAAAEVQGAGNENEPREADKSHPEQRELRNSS
Procedure: as §11, §1, §2, §3, §4, §5, §6, §7, §8, §9, §10

[6] = molecular target: T6, PICK1 F.L. (Homo sapiens, UniProt Q9NRD5); experiment: as above; assay type: binding; settings: pre-incubation conditions
T6 construct: PICK1 F.L; made in house
T6 sequence (Q9NRD5 whole entry): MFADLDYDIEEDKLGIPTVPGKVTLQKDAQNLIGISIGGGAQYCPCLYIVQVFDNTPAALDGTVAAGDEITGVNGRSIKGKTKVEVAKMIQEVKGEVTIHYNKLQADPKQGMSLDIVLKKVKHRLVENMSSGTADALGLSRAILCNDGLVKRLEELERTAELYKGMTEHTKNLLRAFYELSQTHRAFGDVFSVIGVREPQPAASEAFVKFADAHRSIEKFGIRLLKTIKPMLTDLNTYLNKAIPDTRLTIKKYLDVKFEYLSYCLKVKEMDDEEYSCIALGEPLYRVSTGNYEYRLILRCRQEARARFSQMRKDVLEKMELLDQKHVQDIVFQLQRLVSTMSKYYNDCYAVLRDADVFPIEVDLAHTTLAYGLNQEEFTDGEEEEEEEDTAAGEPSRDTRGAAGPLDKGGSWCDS
Procedure: as §11, §1, §2, §3, §4, §5, §6, §7, §8, §9, §10

[7] = molecular target: T7, Shank 1 (Homo sapiens, UniProt Q9Y566); experiment: as above; assay type: binding; settings: pre-incubation conditions
T7 construct: made in house
T7 sequence (Q9Y566 with tags, fused parts or gaps): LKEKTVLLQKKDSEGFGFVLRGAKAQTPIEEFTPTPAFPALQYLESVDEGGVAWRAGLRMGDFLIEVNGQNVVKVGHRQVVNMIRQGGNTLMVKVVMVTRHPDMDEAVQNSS
Procedure: as §11, §1, §2, §3, §4, §5, §6, §7, §8, §9, §10

[8] = molecular target: T8, Shank 2 (Homo sapiens, UniProt Q9UPX8); experiment: as above; assay type: binding; settings: pre-incubation conditions
T8 construct: made in house
T8 sequence (Q9UPX8 with tags, fused parts or gaps): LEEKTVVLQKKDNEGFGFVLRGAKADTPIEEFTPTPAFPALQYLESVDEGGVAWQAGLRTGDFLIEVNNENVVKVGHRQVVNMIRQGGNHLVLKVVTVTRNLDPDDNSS
Procedure: as §11, §1, §2, §3, §4, §5, §6, §7, §8, §9, §10

[9] = molecular target: T9, Shank 3 (Homo sapiens, UniProt Q9BYB0); experiment: as above; assay type: binding; settings: pre-incubation conditions
T9 construct: made in house
T9 sequence (Q9BYB0 638-747): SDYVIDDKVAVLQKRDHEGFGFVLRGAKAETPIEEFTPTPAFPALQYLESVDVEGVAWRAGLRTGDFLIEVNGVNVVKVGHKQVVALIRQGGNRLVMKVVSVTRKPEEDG
Procedure: as §11, §1, §2, §3, §4, §5, §6, §7, §8, §9, §10

[10] = molecular target: T10, Tip (Homo sapiens, UniProt O14907); experiment: as above; assay type: binding; settings: pre-incubation conditions
T10 construct: made in house
T10 sequence (O14907 15-112): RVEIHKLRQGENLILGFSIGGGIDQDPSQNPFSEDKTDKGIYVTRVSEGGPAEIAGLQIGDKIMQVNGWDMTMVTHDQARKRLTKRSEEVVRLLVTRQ
Procedure: as §11, §1, §2, §3, §4, §5, §6, §7, §8, §9, §10

[11] = molecular target: T11, AIPC d1 (Homo sapiens, UniProt O15018); experiment: as above; assay type: binding; settings: pre-incubation conditions
T11 construct: made in house
T11 sequence (O15018 with tags, fused parts or gaps): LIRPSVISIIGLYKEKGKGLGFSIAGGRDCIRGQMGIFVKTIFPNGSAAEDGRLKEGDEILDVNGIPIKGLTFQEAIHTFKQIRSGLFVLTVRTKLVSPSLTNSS
Procedure: as §11, §1, §2, §3, §4, §5, §6, §7, §8, §9, §10

[12] = molecular target: T12, MUPP1d3 (Homo sapiens, UniProt O75970); experiment: as above; assay type: binding; settings: pre-incubation conditions
T12 construct: made in house
T12 sequence (O75970 with tags, fused parts or gaps): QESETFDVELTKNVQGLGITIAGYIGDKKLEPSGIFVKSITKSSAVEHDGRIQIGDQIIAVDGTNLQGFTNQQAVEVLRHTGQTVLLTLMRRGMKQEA
Procedure: as §11, §1, §2, §3, §4, §5, §6, §7, §8, §9, §10

[13] = molecular target: T13, Magi1 d1 (Homo sapiens, UniProt Q96QZ7); experiment: as above; assay type: binding; settings: pre-incubation conditions
T13 construct: made in house
T13 sequence (Q96QZ7 with tags, fused parts or gaps): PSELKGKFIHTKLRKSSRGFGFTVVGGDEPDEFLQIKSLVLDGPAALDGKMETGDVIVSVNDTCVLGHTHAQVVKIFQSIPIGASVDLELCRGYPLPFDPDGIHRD
Procedure: as §11, §1, §2, §3, §4, §5, §6, §7, §8, §9, §10

[14] = molecular target: T14, NOS1 (Homo sapiens, UniProt P29475); experiment: as above; assay type: binding; settings: pre-incubation conditions
T14 construct: made in house
T14 sequence (P29475 11-100): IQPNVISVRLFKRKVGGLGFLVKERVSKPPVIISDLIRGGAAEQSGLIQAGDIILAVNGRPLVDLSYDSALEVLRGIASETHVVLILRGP
Procedure: as §11, §1, §2, §3, §4, §5, §6, §7, §8, §9, §10

[15] = molecular target: T15, PAR3L d3 (Homo sapiens, UniProt Q8TEW8); experiment: as above; assay type: binding; settings: pre-incubation conditions
T15 construct: made in house
T15 sequence (Q8TEW8 with tags, fused parts or gaps): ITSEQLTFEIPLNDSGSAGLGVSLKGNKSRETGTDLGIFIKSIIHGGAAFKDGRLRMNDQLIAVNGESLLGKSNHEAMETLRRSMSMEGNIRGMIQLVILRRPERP
Procedure: as §11, §1, §2, §3, §4, §5, §6, §7, §8, §9, §10

[16] = molecular target: T16, PAR6 beta (Homo sapiens, UniProt Q9BYG5); experiment: as above; assay type: binding; settings: pre-incubation conditions
T16 construct: made in house
T16 sequence (Q9BYG5 with tags, fused parts or gaps): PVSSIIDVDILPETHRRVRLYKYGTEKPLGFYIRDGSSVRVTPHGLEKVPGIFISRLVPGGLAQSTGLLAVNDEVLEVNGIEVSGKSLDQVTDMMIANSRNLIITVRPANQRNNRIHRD
Procedure: as §11, §1, §2, §3, §4, §5, §6, §7, §8, §9, §10

[17] = molecular target: T17, RIM2 (Homo sapiens, UniProt Q9UQ26); experiment: as above; assay type: binding; settings: pre-incubation conditions
T17 construct: made in house
Procedure: as §11, §1, §2, §3, §4, §5, §6, §7, §8, §9, §10

[18] = molecular target: T18, RhophilinLike (Homo sapiens, UniProt Q8TCX5); experiment: as above; assay type: binding; settings: pre-incubation conditions
T18 construct: made in house
T18 sequence (Q8TCX5 with tags, fused parts or gaps): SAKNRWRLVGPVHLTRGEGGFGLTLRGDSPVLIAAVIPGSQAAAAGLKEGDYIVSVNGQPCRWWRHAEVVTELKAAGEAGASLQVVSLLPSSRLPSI
Procedure: as §11, §1, §2, §3, §4, §5, §6, §7, §8, §9, §10

[19] = molecular target: T19, SITAC-18 d1 (Homo sapiens, UniProt Q9H190); experiment: as above; assay type: binding; settings: pre-incubation conditions
T19 construct: made in house
T19 sequence (Q9H190 104-195): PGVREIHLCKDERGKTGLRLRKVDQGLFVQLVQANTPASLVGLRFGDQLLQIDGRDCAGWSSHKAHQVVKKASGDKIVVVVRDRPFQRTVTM
Procedure: as §11, §1, §2, §3, §4, §5, §6, §7, §8, §9, §10

[20] = molecular target: T20, SITAC-18 d2 (Homo sapiens, UniProt Q9H190); experiment: as above; assay type: binding; settings: pre-incubation conditions
T20 construct: made in house
T20 sequence (Q9H190 with tags, fused parts or gaps): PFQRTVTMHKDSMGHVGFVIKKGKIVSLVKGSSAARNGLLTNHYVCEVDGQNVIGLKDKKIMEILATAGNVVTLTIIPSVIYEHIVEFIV
Procedure: as §11, §1, §2, §3, §4, §5, §6, §7, §8, §9, §10

[21] = molecular target: T21, ZO-1 d4 (Homo sapiens, UniProt Q07157); experiment: as above; assay type: binding; settings: pre-incubation conditions
T21 construct: ZO-1 d4; made in house
T21 sequence (Q07157 178-269 limits assumed): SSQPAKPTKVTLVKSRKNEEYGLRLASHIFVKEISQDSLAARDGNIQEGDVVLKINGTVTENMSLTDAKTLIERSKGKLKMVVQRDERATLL
Procedure: as §11, §1, §2, §3, §4, §5, §6, §7, §8, §9, §10

[22] = modified G assay titration (FIG. 2D, FIG. 3D)
[23] = modified G assay titration (FIG. 2C, FIG. 3C)
[24] = modified G assay titration (FIG. 2B, FIG. 3B)

Q: What does the source list for YGRKKRRQRRRRQGFERALL-OH [Peptide 1905]?
A: EC50 [1, 22]: 8 nM; EC50 ([1]; modified G assay titration, third experiment (FIG. 5, printed as FIG. 3D)): 30 nM; EC50 [2, 23]: 14 nM; EC50 ([2]; modified G assay titration, third experiment (FIG. 5, printed as FIG. 3C)): 68 nM; EC50 [3, 24]: 2.8 nM; EC50 ([3]; modified G assay titration, third experiment (FIG. 5B)): 36 nM; Intensity of Hit, PDZ EBP50 [4]: STRONG; Intensity of Hit, PDZ EBP50 d1 [5]: STRONG; Intensity of Hit, PDZ PICK1 F.L. [6]: STRONG; Intensity of Hit, PDZ Shank 1 [7]: STRONG; Intensity of Hit, PDZ Shank 2 [8]: STRONG; Intensity of Hit, PDZ Shank 3 [9]: STRONG; Intensity of Hit, PDZ Tip [10]: STRONG

Q: For YGRKKRRQRRRRQGLERILL-OH [Peptide 1904], which EC50 [1, 22] is on record?
A: The EC50 was 14.9 nM.

Q: And the EC50 [2, 23]?
A: The EC50 was 30 nM.

Q: And the EC50 [3, 24]?
A: Its EC50 is 25 nM.

Q: What about the “Intensity of Hit, PDZ AIPC d1” value [11] of the same substance?
A: The value was “STRONG”.

Q: What about the “Intensity of Hit, PDZ MUPP1d3” value [12] of the same substance?
A: The value was “WEAK”.

Q: What about the “Intensity of Hit, PDZ Magi1 d1” value [13] of the same substance?
A: Its value is “STRONG”.

Q: What about the “Intensity of Hit, PDZ NOS1” value [14] of the same substance?
A: The value was “STRONG”.

Q: What about the “Intensity of Hit, PDZ PAR3L d3” value [15] of the same substance?
A: The value was “STRONG”.

Q: What about the “Intensity of Hit, PDZ PAR6 beta” value [16] of the same substance?
A: Its value is “STRONG”.

Q: And the “Intensity of Hit, PDZ RIM2” value [17]?
A: Its value is “STRONG”.

Q: And the “Intensity of Hit, PDZ RhophilinLike” value [18]?
A: Its value is “STRONG”.

Q: What about the “Intensity of Hit, PDZ SITAC-18 d1” value [19] of the same substance?
A: The value was “STRONG”.

Q: What about the “Intensity of Hit, PDZ SITAC-18 d2” value [20] of the same substance?
A: The value was “STRONG”.

Q: What about the “Intensity of Hit, PDZ ZO-1 d4” value [21] of the same substance?
A: The value was “STRONG”.
